Values quoted from earlier work, collected in article PMC10628858, “Investigation of new ferrocenyl-artesunate derivatives as antiparasitics” (Dalton Transactions (Cambridge, England : 2003), 2023).

System: P. falciparum Dd2 (chloroquine resistant)
Set-up: method as in doi:10.1016/j.jorganchem.2023.122633
Conditions: chloroquine resistant strain; cited from earlier work

In the case of `CC1CCC2C(C)C(OC(=O)CCC(=O)NC[c-]3cccc3)OC3OC4(C)CCC1C32OO4.[Fe+2].c1cc[cH-]c1` (stereo not shown) [Compound C4], the “Activity against P. falciparum Dd2” value is given as 3.0 nM.
